Data from patent publication US8575188B2 (priority 2009, dated 2013).
Read-outs that look alike come from different tables or passages of the source.

Experiments:
[1] = tested on: IGROV1 human ovarian cancer cells; assay: Xenograft model of metastatic ovarian cancer (i.p.), survival; conditions: IGROV1 i.p., median survival treated / vehicle times 100; PO, QD × 5/wk, 4 weeks, 150 mg/Kg
Method: One arm was dosed with only vehicle and the results used for the efficacy calculations. […] A xenograft model of metastatic ovarian cancer was set up by the intraperitoneal (i.p) injection of 3×10^6 IGROV1 human ovarian cancer cells in nude mice. Mice were evaluated twice a week for morbidity and mortality. Kaplan-Meier survival curves were plotted.

H46O cells = assay: Selective hypoxic activation of 14-nitro prodrugs in cell culture; format: cell-based, human; conditions: TH1332 at 5 micromolar, 24 hour
Method: H46O cells were grown to a confluent monolayer and then the 14-nitro TH1332 prodrug was added to the media at 5 micromolar concentration. Incubations were done for 24 hour either under air or nitrogen (hypoxia), media and cells were recovered, sonicated and soluble extracts were isolated by acetonitrile precipitation of proteins. The level of amino TH1338 active cytotoxin were quantitated by liquid chromotagraphy mass spectra analysis. The equivalent of 70 nanomolar TH1338 was produced under hypoxia with undetectable levels being produced under air (less than 5 nanomolar).
The analogous experiment was preformed using 1 micromolar concentration of the 14-nitro derivative TH1431. After 24 hr, 180 nanomolar of the 14 amino TH1499 was produced under nitrogen with undetectable levels produced under air (less than 5 nanomolar).

[2] = tested on: human non small cell lung cancer cell line H460; assay: Antiproliferation (cytotoxicity) assay, 72 hrs under air, Alamar Blue; format: cell-based; conditions: read-out: IC50
[3] = Brain penetration, AUC in brain versus AUC plasma; conditions: mouse
Method: Certain compounds of the invention were assessed for brain penetration by comparing the AUC for plasma exposure versus the AUC in brain.

[4] = tested on: H69 small cell lung cancer line; assay: Efflux pump drug resistance, antiproliferation assay, parent line; format: cell-based; conditions: air
Method: (§1) The compounds were screened for cytotoxicity using human non small cell lung cancer cell line H460. […]
(§2) Cellular drug resistance was determined using the antiproliferation assay described above.

pcDNA = assay: as above; format: cell-based; conditions: air
Method: as §1, §2

[5] = tested on: Messa ovarian carcinoma cell line; assay: as above; format: cell-based; conditions: Homo sapiens, MES-SA, air
Method: […] Cells were treated with test compounds at various concentrations under air for 72 hrs, and then cell viability and proliferation were assessed by Alamar Blue staining.
as §2

[6] = Bone marrow progenitor cell clonogenic assay (CFU-GM), mouse; conditions: mouse
Method: (§3) A clonogenic assay was performed using bone marrow progenitor cells derived from the blood of mice and humans.

[7] = tested on: bone marrow progenitor cells; assay: as above; conditions: for IC50: read-out: Mouse CFU-GM (IC50 nM) THLD
Method: as §3

[8] = Bone marrow progenitor cell clonogenic assay (CFU-GM), human; conditions: human
Method: as §3

[9] = tested on: bone marrow progenitor cells; assay: as above; conditions: for IC50: read-out: Human CFU-GM (IC50 nM) THLD
Method: as §3

[10] = tested on: human prostate cancer PC-3; assay: Xenograft model, subcutaneous, tumor growth inhibition and body weight loss; conditions: for TGI (%): PC3, PO, QD × 5/wk, 2 weeks; for Max. BWL (%): mouse, in vivo, po
Method: (§4) The first three models were produced by subcutaneous implantation of the appropriate number of cells into the flank of the animals. When tumor size was approximately 150 mm^3, animals were randomized into groups of 10 mice each for dosing. One arm was dosed with only vehicle and the results used for the efficacy calculations. […] TGI=(1−T/C) %. T/C ratio was calculated as T/C=(Tn−Ti)/(Cn−Ci), where Tn is tumor volume in treatment group on Day n, and Ti is the initial tumor volume in the treatment group. Cn is the tumor volume of the vehicle group on the last day of measurement. Ci is the initial tumor volume in the vehicle control group. Day n is the last measurement taken when all the animals in the vehicle group were not yet euthanized. Animals were euthanized when tumor volumes grew larger than 2000 mm^3.

human colon cancer HT-29 = assay: as above; conditions: for TGI (%): HT29, PO, QD × 5/wk; for Max. BWL (%): mouse, in vivo, po
Method: as §4

[11] = tested on: human non small cell lung cancer H-460; assay: as above; conditions: for TGI (%): H460, PO, QD × 5/wk, 2 weeks; for Max. BWL (%): mouse, in vivo, po
Method: as §4

[12] = In vivo pharmacokinetics, oral gavage; conditions: CD, mouse, in vivo, po; for AUC / Cmax: 50 mg/kg
Method: The data normalized to a 50 mg/kg dose are shown below (compounds were dosed at either 25 or 50 mg/kg).

[13] = tested on: MRP1 over expressing H69AR line; assay: Efflux pump drug resistance, antiproliferation assay, MRP1 over expressing line; format: cell-based; conditions: Homo sapiens, air
Method: as §1, §2

[14] = tested on: BCRP, which over expressed the breast cancer resistance protein; assay: Efflux pump drug resistance, antiproliferation assay, BCRP over expressing line; conditions: for 3d BCRP/pcDNA / 5d BCRP/pcDNA: ratio of IC50s, BCRP over expressing versus parent line; for 3d BCRP/pcDNA: 3 days; for 5d BCRP/pcDNA: 5 days
Method: as §1, §2

[15] = tested on: DX5, which over expresses the MDR 1 efflux pump; assay: Efflux pump drug resistance, antiproliferation assay, MDR 1 over expressing line; format: cell-based; conditions: air
Method: as §1, §2

[16] = tested on: human melanoma cell line A375; assay: Antiproliferation assay, 72 hrs under air, Alamar Blue; format: cell-based
[17] = tested on: human melanoma cell line MAMLE-3M; assay: as above; format: cell-based
[18] = tested on: human ovarian cancer cell line IGROV-1; assay: as above; format: cell-based
[19] = tested on: human prostate cancer cell line DU145; assay: as above; format: cell-based
[20] = tested on: human colon cancer cell line HT-29; assay: as above; format: cell-based; conditions: read-out: HT29 IC50
[21] = tested on: human prostate cancer cell line LNCap; assay: as above; format: cell-based
[22] = tested on: human melanoma cell line SKMEL-28; assay: as above; format: cell-based
[23] = tested on: human prostate cancer cell line PC-3; assay: as above; format: cell-based; conditions: read-out: PC3 IC50
[24] = tested on: human melanoma cell line SKMEL2; assay: as above; format: cell-based; conditions: read-out: SKMEL-2 IC50
[25] = Homo sapiens, NCI-H460, H460, inhibition of proliferation, 72 hrs under air
[26] = 120 h, 5 days, read-out: Air 5d H69 prol. IC50
[27] = 72 h, 3 days, read-out: Air 3d pcDNA prol. IC50
[28] = 120 h, 5 days, read-out: Air 5d pcDNA prol. IC50
[29] = 72 h, 3 days, read-out: Air 3d MESSA prol. IC50
[30] = 120 h, 5 days, read-out: Air 5d MESSA prol. IC50
[31] = 120 h, 5 days, read-out: Air 5d H69ar (MRP1) prol. IC50
[32] = 72 h, read-out: Air 3d BCRP prol. IC50 nM, air, 3 days
[33] = 120 h, read-out: Air 5d BCRP prol. IC50 nM, air, 5 days
[34] = MDR1, 72 h, 3 days, read-out: Air 3d DX5 prol. IC50
[35] = MDR1, 120 h, 5 days, read-out: Air 5d DX5 prol. IC50
[36] = 72 h, 3 days, read-out: Air 3d H69 prol. IC50
[37] = 72 h, 3 days, read-out: Air 3d H69ar (MRP1) prol. IC50

| Structure (SMILES) | IC50 [2, 25] [nM] | IC50 [4, 26] [nM] | IC50 (pcDNA; [27]) [nM] | IC50 [5, 29] [nM] | IC50 [5, 30] [nM] | IC90 [6] [nM] | IC50 ([7]; Mus musculus, CFU-GM) [nM] | IC90 [8] [nM] | IC50 ([9]; Homo sapiens, CFU-GM) [nM] | half-life [12] [min] | AUC [12] [ng·h/mL] | Cmax [12] [ng/mL] | IC50 [13, 31] [nM] | IC50 [14, 32] [nM] | 3d BCRP/pcDNA [14] | IC50 [15, 34] [nM] | IC50 [15, 35] [nM] | IC50 [4, 36] [nM] | IC50 [13, 37] [nM] | further results |
| --- | --- | --- | --- | --- | --- | --- | --- | --- | --- | --- | --- | --- | --- | --- | --- | --- | --- | --- | --- | --- |
| CCc1c2c(nc3ccccc13)-c1c([N+](=O)[O-])c3c(c(=O)n1C2)COC(=O)[C@]3(O)CC [TH1332] | 66 | 4220 | 1800 | 5300 | 2330 | > 10000 | > 10000 | > 100 | > 1000 | 375 | 1820 | 380 | 8710 | 2300 | 1.3 | 6300 | 2740 | – | – | T/C [1]: 159; TH1338 produced under air (H46O cells; air, undetectable levels): less than 5 nanomolar; TH1338 produced under hypoxia (H46O cells; nitrogen (hypoxia), LC-MS): 70 nM; Kp [3]: 0.18; IC50 (pcDNA; [28]): 24 nM; TGI (%) ([10]; 150 mg/Kg): 103%; Max. BWL (%) ([10]; 150 mg/kg): 1.8%; TGI (%) (human colon cancer HT-29; 4 weeks, 150 mg/Kg): 62.8%; Max. BWL (%) (human colon cancer HT-29; 150 mg/kg): 0%; TGI (%) ([11]; 150 mg/Kg): 91.4%; Max. BWL (%) ([11]; 150 mg/kg): 11.4%; IC50 [14, 33]: 21 nM; 5d BCRP/pcDNA [14]: 0.875 |
| CC[C@@]1(O)C(=O)OCc2c1c([N+](=O)[O-])c1n(c2=O)Cc2cc3ccccc3nc2-1 [TH1317] | > 1000 | 933 | – | – | > 500 | – | – | – | – | – | – | – | 1320 | – | – | – | > 500 | – | – | IC50 (pcDNA; [28]): 57 nM; IC50 [14, 33]: 82 nM; 5d BCRP/pcDNA [14]: 1.4386 |
| CC[C@@]1(O)C(=O)OCc2c1c(N)c1n(c2=O)Cc2c-1nc1ccccc1c2/C=N/OC(C)(C)C [TH1499] | 19 | – | 3.2 | 9 | – | – | – | – | – | – | – | – | – | 3.4 | 1.0625 | 5 | – | 217 | 463 | TGI (%) (human colon cancer HT-29; 2 weeks, 25 mg/Kg): 4.7%; Max. BWL (%) (human colon cancer HT-29; 25 mg/kg): 1.8% |
| CCCc1c2c(nc3ccccc13)-c1c(N)c3c(c(=O)n1C2)COC(=O)[C@]3(O)CC [TH1651] | 6.2 | – | – | – | – | – | – | – | – | – | – | – | – | – | – | – | – | – | – | TGI (%) ([10]; 40 mg/Kg): 80%; Max. BWL (%) ([10]; 40 mg/kg): 4.8%; TGI (%) ([11]; 40 mg/Kg): 80%; Max. BWL (%) ([11]; 40 mg/kg): 5.5% |
| CC[C@@]1(O)C(=O)OCc2c1c(NC=O)c1n(c2=O)Cc2cc3ccccc3nc2-1 [TH1589] | 59 | – | – | – | – | 6200 | 920 | 680 | 110 | – | – | – | – | – | – | – | – | – | – | TGI (%) ([10]; 40 mg/Kg): 80%; Max. BWL (%) ([10]; 40 mg/kg): 0.1%; TGI (%) ([11]; 30 mg/Kg): 76%; Max. BWL (%) ([11]; 30 mg/kg): 10.4% |
| CCc1c2c(nc3ccc(O)cc13)-c1cc3c(c(=O)n1C2)COC(=O)[C@]3(O)CC [SN-38, reference compound] | – | – | – | – | – | – | – | – | – | – | – | – | – | – | – | – | – | – | – | IC50 [16]: 4 nM; IC50 [17]: 200 nM; IC50 [2]: 54 nM; IC50 [18]: 30 nM; IC50 [19]: 4 nM; IC50 [20]: 224 nM; IC50 [21]: 9 nM; IC50 [22]: 10000 nM; IC50 [7]: 110 nM; IC50 [9]: 1.3 nM; IC50 [23]: 4 nM; ratio BCRP over expressing line versus the parent cell line ([14]; not told): > 220; IC50 [24]: 100 nM |
| CC[C@@]1(O)C(=O)OCc2c1cc1n(c2=O)Cc2cc3c(N)cccc3nc2-1 [9-amino camptothecin, reference compound] | – | – | – | – | – | – | – | – | – | – | – | – | – | – | – | – | – | – | – | IC50 ([7]; mouse bone marrow progenitor cells, clonogenic assay): 90 nM; IC90 ([7]; read-out: Mouse CFU-GM (IC90 nM) THLD, IC90, mouse bone marrow progenitor cells, clonogenic assay): 700 nM; IC50 ([9]; human bone marrow progenitor cells, clonogenic assay): 1.2 nM; IC90 ([9]; read-out: Human CFU-GM (IC90 nM) THLD, IC90, human bone marrow progenitor cells, clonogenic assay): 8 nM |
| CC[C@@]1(O)C(=O)OCc2c1c([N+](=O)[O-])c1n(c2=O)Cc2c-1nc1ccccc1c2C [TH1446] | 850 | 2740 | 574 | – | 4450 | – | – | – | – | 35.4 | 4280 | 5100 | 8510 | 2740 | 4.777 | – | 4960 | – | – | TGI (%) (human colon cancer HT-29; 2 weeks, 40 mg/Kg): 29.5%; Max. BWL (%) (human colon cancer HT-29; 40 mg/kg): 1.1% |
| CC[C@@]1(O)C(=O)OCc2c1c(N)c1n(c2=O)Cc2cc3c(N)cccc3nc2-1 [TH1386] | 71 | – | 5.6 | 52 | – | 3500 | 680 | 210 | 30 | 25.6 | 3100 | 5860 | – | 26.6 | 4.75 | 28 | – | 141 | 195 | – |
| CCc1c2c(nc3ccccc13)-c1c(NC=O)c3c(c(=O)n1C2)COC(=O)[C@]3(O)CC [TH1408] | 66 | – | 9.5 | 81 | – | 5000 | 700 | 650 | 90 | 48.3 | 8430 | 6070 | – | 7.3 | 0.7684 | 40 | – | 242 | 285 | – |
